The text below walks through data of patent US10662210B2, “Compositions and methods comprising osmium for the treatment of cancers” (Massachusetts Institute of Technology, priority 2014, dated 2020).

Series [1] deals with A549 (lung). Kind of series: Cytotoxicity MTT assay. The settings on record: 72 h. Format: cell-based, human. As for the experimental part:
(§1) The anti-proliferative properties of 1-4 against a panel of human cancer cell lines were assessed by the MTT [3-(4,5-dimethylthiazol-2-yl)-2,5-diphenyltetrazolium bromide] assay. Cisplatin was included as a control. The IC50 values, concentrations required to induce 50% viability, were derived from dose-response curves and are summarized in Table 1.
(§2) A549 lung adenocarcinoma, HeLa cervical cancer, and MRC5 normal human fetal lung fibroblast cell lines were maintained in Dulbecco's Modified Eagle's Medium (DMEM-low glucose) supplemented with 10% fetal bovine serum and 1% penicillin/streptomycin. The cisplatin-sensitive A2780 ovarian cancer and the cisplatin-resistant A2780/CP70 ovarian cancer cell lines were cultured in RPMI (glutamine free) media supplemented with 10% fetal bovine serum and 1% penicillin/streptomycin. All cells were grown at 310 K in a humidified atmosphere containing 5% CO2.
(§3) The colorimetric MTT assay was used to determine the toxicity of the osmium complexes and cisplatin. Cells (2×10^3) were seeded in each well of a 96-well plate. After incubating the cells overnight, various concentrations of test compound (0.3-100 μM) were added and incubated for 72 h (total volume 200 μL). The test compounds were prepared as 10 mM solutions in DMSO and diluted using media. The final concentration of DMSO in each well was 0.5% and this amount was present in the untreated control as well. Cisplatin was prepared as a 5 mM solution in PBS and diluted further using media. After 72 h, the medium was removed, 200 μL of a 0.4 mg/mL solution of MTT in DMEM or RPMI was added, and the plate was incubated for an additional 1-2 h. The DMEM/MTT or RPMI/MTT mixture was aspirated and 200 μL of DMSO was added to dissolve the resulting purple formazan crystals. The absorbance of the solution wells was read at 550 nm. Absorbance values were normalized to DMSO-containing control wells and plotted as concentration of test compound versus % cell viability. IC50 values were interpolated from the resulting dose dependent curves. The reported IC50 values are the average from at least three independent experiments, each of which consisted of six replicates per concentration level.
For orientation: Formazan colour is commonly taken as a measure of viable cells.

Series [2] has as its system A2780 (ovarian). Put plainly: Cytotoxicity MTT assay. Format: cell-based, human. The following applies: MTT, 72 h. As for the experimental part: as §1, §2, §3
In series [3] the test system is MRC-5 (lung normal). Kind of series: Cytotoxicity MTT assay. Format: cell-based, human. The following applies: 72 h. As for the experimental part:
as §1, §2, §3

The test system of series [4] is HeLa (cervical). Kind of series: Cytotoxicity MTT assay. Format: cell-based, human. The settings on record: 72 h. As for the experimental part:
as §1, §2, §3

Series [5] has as its system A2780/CP70 (ovarian). Kind of series: Cytotoxicity MTT assay. Format: cell-based, human. The settings on record: 72 h, cisplatin-resistant. As for the experimental part: as §1, §2, §3
Series [6] can be described thus: Water-octanol partition coefficient (log P), shake-flask method with GF-AAS. Format: physicochemical. The following applies: room temperature, 50 μM. As for the experimental part: Those of ordinary skill in the art would be knowledgeable of methods of determining the water-octanol partition coefficient of compounds. For example, the log P of a compound may be obtained using the shake-flask method and graphite furnace atomic absorption spectroscopy (GF-AAS). Briefly, in the shake-flask method, octanol is pre-saturated with water by overnight incubation with shaking of a biphasic mixture of the two at room temperature. A portion of 0.5 mL water containing 50 μM of the given compound is incubated with the pre-saturated octanol (0.5 mL) in a 1.5 mL tube. The tube is shaken at room temperature for 3 hours. The two phases are separated by centrifugation and the osmium content (concentration) in each phase is determined by GFAAS. The log P is then calculated using the formula below: log P=log 10[(concentration of osmium in the octanol layer)/(concentration of osmium in the water layer)].
The log P values were obtained using the shake-flask method and graphite furnace atomic absorption spectroscopy (GF-AAS). Octanol used in this experiment was pre-saturated with water by overnight incubation with shaking of a biphasic mixture of the two at room temperature. A portion of 0.5 mL water containing 50 μM of the given compound was incubated with the pre-saturated octanol (0.5 mL) in a 1.5 mL tube. The tube was shaken at room temperature for 3 h. The two phases were separated by centrifugation and the osmium content (concentration) in each phase was determined by GFAAS. All the experiments were carried out in triplicate. The log P was then calculated using the formula below: Log P=log 10[(conc. of osmium in the octanol layer)/(conc. of osmium in the water layer)].

Series [7] has as its system HMLER CSC-depleted. Kind of series: Cytotoxicity against CSC-depleted breast cancer cells. Format: cell-based.
Excerpt: (§4) Cancer relapse is strongly linked to the existence of CSCs. […] Conventional chemotherapy and radiotherapy are often ineffective against CSCs. Although current therapies effectively reduce tumor mass by destroying the bulk of cancer cells, they are unable to remove CSCs, which persist and generate new tumors, often of a far more aggressive nature. Therefore, in order to improve clinical outcomes, treatments must have the ability to kill the entirety of cancer cells, including CSCs. The osmium compound, described in Formula (I), wherein X^1, X^2, and X^3 were chloride ligands and the bidentate ligand was a 1,10-phenanthroline ligand, was able to kill breast cancer cells (HMLER) enriched with CSCs, 2.3-fold better than CSC-depleted breast cancer cells. […] The selectivity of the osmium compound can be seen in Table 2 as well as FIGS. 17A-B and 18.
as §3

Series [8] relates to HMLER^tax CSC-enriched. Kind of series: Cytotoxicity against CSC-enriched breast cancer cells. Format: cell-based. The settings on record: for HMLER^tax selectivity: CSC-enriched vs CSC-depleted.
Excerpt: as §4, §3

Series [9] deals with A2780 cells. Kind of series: Cytotoxicity MTT assay with pathway and cell death inhibitors. The following applies: salubrinal 10 μM. Format: cell-based, human. As for the experimental part: This finding led to the investigation of the possibility that 4 may induce endoplasmic reticulum (ER) stress. Co-administration of 4 and salubrinal (10 μM), a known ER stress inhibitor, reduced the cytotoxicity of 4 in A2780 cells. […] To further validate the ER as the main target for 4, the expression of proteins related to the unfolded protein response (UPR) was monitored. […] ER membrane expansion is widely associated with ER stress. With this fact in mind the ER size of A2780 cells upon incubation with 4 were examined using fluorescence microscopy. Relative to untreated controls (FIG. 3B), cells exposed to 4 (10 μM) for 4 h had 25.1% larger ER coverage (FIG. 3C). The ER size relative to the whole cell of the untreated controls was about 30% and the ER size relative to the whole cell of the treated samples was about 55%.
Having established the intracellular targets of 2 and 4, the role of p53, a cell cycle and apoptosis regulator, in the cellular responses evoked was investigated. […] Therefore, p53 played a fundamental role in coordinating the cellular response to 2-induced DNA damage. […] (FIG. 13). […] To relate p53 to potency, cytotoxicity studies were conducted in the presence of p53 inhibitors pifithrin-α and pifithrin-μ. (both 10 μM). […] The IC50 values of compound 2 in the absence and presence of p53 inhibitor pifithrin-μ after 72 hours incubation was about 2 μM and about 30 μM, respectively.
as §3
For specific pathway and cell death inhibitor assays, inhibitors of p53 (pifithrin-α, 10 μM and pifithrin-μ, 10 μM), ER stress (salubrinal, 10 μM), necrosis (IM-54, 10 μM), and autophagocytosis (chloroquine, 10 μM) were added to cells and incubated for 0-1 h prior to treatment with the test compounds.

`CC1=C[N]2c3c4c(ccc3=C1C)=C(C)C(C)=C[N]4[Os]2(#[N])([Cl])([Cl])[Cl]` [Complex 3, OsN(3,4,7,8-tetramethyl-1,10-phenanthroline)Cl3]: the IC50 (usually the concentration needed to halve the response being measured) in [1] is 14.9 ± 1.63 µM; in series [2] it was 7.97 ± 1.41 µM; in series [3], 17.2 ± 2.16 µM; in [4] it was 6.34 ± 0.52 µM; in series [5] it was 3.91 ± 0.26 µM. Further, the “log P (water-octanol coefficient)” value in [6] is listed as 1.54.

In series [7], `N.N.O=C([O-])C1(C(=O)[O-])CCC1.[Pt+2]` [carboplatin] displayed an IC50 of 17.8 µM. Besides, in [8], half-maximal inhibition (IC50) required 18.2 µM and the “HMLER^tax selectivity” value came out at 0.98.

With `N.N.[Cl][Pt][Cl]` [cisplatin, reference compound], the IC50 is 1.95 µM in [7]; 3.59 ± 0.92 µM in series [1]; 1.41 ± 0.37 µM in series [2]; 11.1 ± 1.33 µM in series [3]; 2.83 ± 0.06 µM in [4]; 10.3 ± 1.5 µM in series [5]. This compound also registered a 50% inhibitory concentration (IC50) in series [8] of 2.06 µM. Further, in [8], the “HMLER^tax selectivity” value was found to be 0.95. The “effect of salubrinal on toxicity” value in series [9] was “limited effect”.

With `O=C1[O][Pt]2([NH][C@@H]3CCCC[C@H]3[NH]2)[O]C1=O` [oxaliplatin], in series [7], half-maximal inhibition (IC50) required 15 µM. Besides, in series [8], the 50% inhibitory concentration (IC50) was found to be 26.9 µM and the “HMLER^tax selectivity” value was found to be 0.55.

Compound `CC[C@@H](C(=O)[C@@H](C)[C@@H](O)[C@H](C)[C@@H]1O[C@@H]([C@@H](CC)C(=O)O)CC[C@@H]1C)[C@H]1O[C@]2(C=C[C@@H](O)[C@]3(CC[C@@](C)([C@H]4CC[C@](O)(CC)[C@H](C)O4)O3)O2)[C@H](C)C[C@@H]1C` [salinomycin] gave an IC50 in series [7] of 0.49 µM. For the same compound, in [8], the midpoint of inhibition, the IC50, lay at 0.058 µM and the “HMLER^tax selectivity” value stood at 8.45.

`CC(=O)[O][Pt]([NH2])([Cl])([Cl])([NH]C1CCCCC1)[O]C(C)=O` [satraplatin] displayed an IC50 in series [7] of 1.22 µM. Also, in series [8], inhibition was half-maximal at 2.87 µM (IC50) and the “HMLER^tax selectivity” value was 0.43.

In the case of OsN(2,2′-bipyridine)Cl3 [Complex 1], the IC50 came out at 6.11 ± 0.87 µM in [1]; 3.8 ± 0.21 µM in [2]; 21.6 ± 4.85 µM in series [3]; 9.24 ± 0.58 µM in series [4]; 3.94 ± 1.75 µM in series [5]. In series [6], the “log P (water-octanol coefficient)” value is given as 0.71.

For the compound abamectin, in series [7], it took 1.45 µM to reach half-maximal inhibition (IC50). In addition, in series [8], the IC50 came to 0.64 µM and the “HMLER^tax selectivity” value was determined as 2.26.
